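Protocol summary: plate cells (96-well), add compound at 5 concentrations, incubate 48 h, interpolate endpoints linearly. At the GI50, growth is halved.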 The source made the active and inactive calls. No stated cut-off is given here; in the data, active = GI50 up to about 1.1 µM and inactive = higher.
What was measured:
Assay in all cases: DTP human tumour cell line panel, 48 h
[1] = test system: U-251
[2] = test system: A549
[3] = test system: RPMI-8226
[4] = test system: MDA-MB-231
[5] = test system: HCC 2998
[6] = test system: SK-MEL-28
[7] = test system: SF-539
[8] = test system: A498
[9] = test system: NCI-H522
[10] = test system: KM12
[11] = test system: HCT-116
[12] = test system: LOX IMVI
[13] = test system: TK-10
[14] = test system: OVCAR-5
[15] = test system: SK-MEL-2
[16] = test system: SK-OV-3
[17] = test system: Malme-3M
[18] = test system: UACC-257
[19] = test system: MCF7

| Compound | GI50 [1] | GI50 [2] | GI50 [3] | GI50 [4] | GI50 [5] | GI50 [6] | GI50 [7] | GI50 [8] | GI50 [9] | GI50 [10] | GI50 [11] | GI50 [12] | GI50 [13] | GI50 [14] | GI50 [15] | GI50 [16] | GI50 [17] | GI50 [18] | GI50 [19] |
| --- | --- | --- | --- | --- | --- | --- | --- | --- | --- | --- | --- | --- | --- | --- | --- | --- | --- | --- | --- |
| CN(C)CCCN1c2ccc3ccccc3c2Sc2cccc(Cl)c21 | 2.18 µM (inactive) | 5.81 µM (inactive) | 1.78 µM (inactive) | 2.32 µM (inactive) | 1.61 µM (inactive) | 2.18 µM (inactive) | 4.32 µM (inactive) | 9.82 µM (inactive) | 2.61 µM (inactive) | 2.08 µM (inactive) | 3.79 µM (inactive) | 1.97 µM (inactive) | 2.52 µM (inactive) | 5.13 µM (inactive) | 1.99 µM (inactive) | 11.4 µM (inactive) | 5.13 µM (inactive) | 1.69 µM (inactive) |  |
| O=C(O)C1(Nc2ccc(Cl)cc2)CCCC1 | > 100 µM (inactive) | > 100 µM (inactive) | > 100 µM (inactive) | > 100 µM (inactive) |  | > 100 µM (inactive) |  | > 100 µM (inactive) | > 100 µM (inactive) | > 100 µM (inactive) | 76.4 µM (inactive) | > 100 µM (inactive) | > 100 µM (inactive) | > 100 µM (inactive) | > 100 µM (inactive) | > 100 µM (inactive) | > 100 µM (inactive) |  | > 100 µM (inactive) |
| c1ccc(C[N+]23C(CC[C@H]2c2ccccc2)CC[C@H]3c2ccccc2)cc1 (stereo partly specified) | 25.3 µM (inactive) | 36.6 µM (inactive) | 2.94 µM (inactive) | 34.9 µM (inactive) |  | 34.6 µM (inactive) |  | > 100 µM (inactive) | 18 µM (inactive) | 21.8 µM (inactive) | 28.8 µM (inactive) | 29.2 µM (inactive) | 74.1 µM (inactive) | 86.1 µM (inactive) | 29.9 µM (inactive) | 67.9 µM (inactive) | 18.2 µM (inactive) | 6.24 µM (inactive) | 24.4 µM (inactive) |
| CCc1n[nH]c(=O)n1/N=C(\C)c1ccccc1 | > 100 µM (inactive) | > 100 µM (inactive) | > 100 µM (inactive) | > 100 µM (inactive) |  | > 100 µM (inactive) | > 100 µM (inactive) | > 100 µM (inactive) | > 100 µM (inactive) | > 100 µM (inactive) | > 100 µM (inactive) | > 100 µM (inactive) | > 100 µM (inactive) | > 100 µM (inactive) | > 100 µM (inactive) |  | > 100 µM (inactive) | > 100 µM (inactive) | > 100 µM (inactive) |
| COc1cccc2c1OC(c1cccc3ccccc13)C([N+](=O)[O-])=C2 (stereo unspecified) | 1.56 µM (inactive) | 1.95 µM (inactive) | 3.45 µM (inactive) | 2.12 µM (inactive) |  | 1.53 µM (inactive) |  |  | 1.33 µM (inactive) | 1.63 µM (inactive) | 1.21 µM (inactive) | 1.04 µM (active) | 2.32 µM (inactive) | 1.82 µM (inactive) |  | 3.11 µM (inactive) | 1.75 µM (inactive) | 1.54 µM (inactive) | 0.728 µM (active) |
| Cc1ccc(N2C(=O)C3c4[nH]c5ccc(C)cc5c4C4CCC(C(C)(C)C)CC4C3C2=O)cc1 (stereo unspecified) | 10.9 µM (inactive) | 13.6 µM (inactive) | 12.9 µM (inactive) | 10.3 µM (inactive) |  | 22.4 µM (inactive) |  |  | 14.3 µM (inactive) | 18 µM (inactive) | 14.3 µM (inactive) | 15 µM (inactive) | 16.5 µM (inactive) | 11.3 µM (inactive) | 35.8 µM (inactive) |  | 14 µM (inactive) | 33.1 µM (inactive) | 11.3 µM (inactive) |
| CCCCCCCCCC(=O)NC(CCC(=O)N(CCNC(=O)c1nc(-c2ccccc2)oc1-c1ccccc1)Cc1ccccc1)C(=O)O (stereo unspecified) | 18.9 µM (inactive) | 17.4 µM (inactive) | 17.3 µM (inactive) | 19.9 µM (inactive) |  | 22.3 µM (inactive) | 24 µM (inactive) | 21.2 µM (inactive) | 18.5 µM (inactive) | 19.7 µM (inactive) | 17.7 µM (inactive) | 18.6 µM (inactive) | 22.4 µM (inactive) | 17.1 µM (inactive) |  | 16.9 µM (inactive) | 16.4 µM (inactive) | 23.4 µM (inactive) |  |
| COc1ccc(NC(=O)CC(=O)NN)cc1 | > 100 µM (inactive) | > 100 µM (inactive) | > 100 µM (inactive) | > 100 µM (inactive) |  |  | > 100 µM (inactive) |  | > 100 µM (inactive) | > 100 µM (inactive) | > 100 µM (inactive) | > 100 µM (inactive) | > 100 µM (inactive) | > 100 µM (inactive) | > 100 µM (inactive) | > 100 µM (inactive) | > 100 µM (inactive) | > 100 µM (inactive) | > 100 µM (inactive) |
| CCOC(=O)c1cc(-c2ccc(OC)cc2)c([N+](=O)[O-])n1C | > 10 µM (inactive) | > 10 µM (inactive) |  |  | > 10 µM (inactive) |  | > 10 µM (inactive) |  | > 10 µM (inactive) | > 10 µM (inactive) | > 10 µM (inactive) |  |  | > 10 µM (inactive) | > 10 µM (inactive) |  | > 10 µM (inactive) | > 10 µM (inactive) |  |
| CCN(CC)CCSc1nc2c(c(=N)n1-c1ccccc1)c(=S)n(-c1ccccc1)c(=S)n2-c1ccccc1 | 2.37 µM (inactive) | 2.08 µM (inactive) | 0.275 µM (active) | 1.83 µM (inactive) | 1.58 µM (inactive) | 3.62 µM (inactive) | 4.45 µM (inactive) | 8.85 µM (inactive) | 0.843 µM (active) | 5.69 µM (inactive) | 2.06 µM (inactive) | 1.46 µM (inactive) | 1.73 µM (inactive) | 14.9 µM (inactive) | 7.55 µM (inactive) | 6.65 µM (inactive) | 1.55 µM (inactive) | 1.72 µM (inactive) |  |
| Cc1ccc(-n2cc(-c3ccc(Cl)cc3)c3c(NN)ncnc32)cc1 | 1.82 µM (inactive) | 3.26 µM (inactive) |  | 6.89 µM (inactive) | 2.89 µM (inactive) | 3.66 µM (inactive) | 2.51 µM (inactive) |  | 3.58 µM (inactive) | 10.7 µM (inactive) | 2.4 µM (inactive) | 4.68 µM (inactive) | 12.4 µM (inactive) | 6.43 µM (inactive) | 15.1 µM (inactive) | 5.14 µM (inactive) | 3.1 µM (inactive) | 3.97 µM (inactive) |  |
| CC(C)[Si](OC12CCC(CC1O)CC2CO)(C(C)C)C(C)C (stereo unspecified) | 12.6 µM (inactive) | 10.4 µM (inactive) | 10.2 µM (inactive) | 19.7 µM (inactive) |  | 20.4 µM (inactive) | 23.4 µM (inactive) | 16.7 µM (inactive) |  | 12.7 µM (inactive) | 8 µM (inactive) |  | 14.4 µM (inactive) | 17.4 µM (inactive) | 15.8 µM (inactive) | 14.4 µM (inactive) |  | 13.7 µM (inactive) | 12 µM (inactive) |
| CN1C(C(=O)Nc2ccccn2)=C(O)c2ccccc2S1(=O)=O [PIROXICAM] | > 100 µM (inactive) | > 100 µM (inactive) | > 100 µM (inactive) |  |  | > 100 µM (inactive) | > 100 µM (inactive) |  | > 100 µM (inactive) | > 100 µM (inactive) | > 100 µM (inactive) | > 100 µM (inactive) | > 100 µM (inactive) | > 100 µM (inactive) | > 100 µM (inactive) | > 100 µM (inactive) | > 100 µM (inactive) | > 100 µM (inactive) | > 100 µM (inactive) |

From ChEMBL document CHEMBL1201862, “PubChem BioAssay data set” (2004)
